Measurements as given in ChEMBL document CHEMBL1201862, “PubChem BioAssay data set” (2004).
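Interpolation was linear, between the two tested concentrations surrounding the appropriate level; five concentrations were tested over 48 hours in 96-well plates. Abbreviation: GI50, concentration required for 50% inhibition of growth.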 Calls of active or inactive are those of the source. Cut-off read from the data, not from the text of the source: active = GI50 up to about 1.1 µM and inactive = higher.

What was measured:
Test in all cases: NCI tumour cell line growth inhibition, 48 h
OVCAR-4 = system: OVCAR-4
PC-3 = system: PC-3
HCC 2998 = system: HCC 2998
TK-10 = system: TK-10
NCI-H23 = system: NCI-H23
786-0 = system: 786-0
ACHN = system: ACHN
KM12 = system: KM12
HT-29 = system: HT-29
EKVX = system: EKVX
MDA-N = system: MDA-N
SN12C = system: SN12C
BT-549 = system: BT-549
SK-MEL-2 = system: SK-MEL-2
SNB-75 = system: SNB-75
IGROV-1 = system: IGROV-1
NCI-H460 = system: NCI-H460
SF-268 = system: SF-268
HOP-62 = system: HOP-62
SF-539 = system: SF-539
HCT-116 = system: HCT-116
SK-MEL-28 = system: SK-MEL-28
MDA-MB-231 = system: MDA-MB-231
HOP-92 = system: HOP-92
U-251 = system: U-251
MDA-MB-435 = system: MDA-MB-435
SW-620 = system: SW-620
A498 = system: A498
OVCAR-8 = system: OVCAR-8
HL-60 = system: HL-60
MCF7 = system: MCF7
DU-145 = system: DU-145
M14 = system: M14
COLO 205 = system: COLO 205
K562 = system: K562
SF-295 = system: SF-295
OVCAR-3 = system: OVCAR-3
SK-MEL-5 = system: SK-MEL-5
OVCAR-5 = system: OVCAR-5
NCI-H522 = system: NCI-H522
UO-31 = system: UO-31
Hs-578T = system: Hs-578T
UACC-62 = system: UACC-62
SNB-19 = system: SNB-19
RXF 393 = system: RXF 393
MOLT-4 = system: MOLT-4
A549 = system: A549
CCRF-CEM = system: CCRF-CEM
SK-OV-3 = system: SK-OV-3
SR = system: SR
CAKI-1 = system: CAKI-1
Malme-3M = system: Malme-3M
NCI-H226 = system: NCI-H226
UACC-257 = system: UACC-257
HCT-15 = system: HCT-15
LOX IMVI = system: LOX IMVI
RPMI-8226 = system: RPMI-8226
T47D = system: T47D
NCI/ADR-RES = system: NCI/ADR-RES

Structure (SMILES): CCOC(=O)c1cc(-c2ccc(OC)cc2)c([N+](=O)[O-])[nH]1
- GI50 (OVCAR-4): > 10 µM (inactive)
- GI50 (PC-3): > 10 µM (inactive)
- GI50 (HCC 2998): > 10 µM (inactive)
- GI50 (TK-10): > 10 µM (inactive)
- GI50 (NCI-H23): > 10 µM (inactive)
- GI50 (786-0): > 10 µM (inactive)
- GI50 (ACHN): > 10 µM (inactive)
- GI50 (KM12): > 10 µM (inactive)
- GI50 (HT-29): > 10 µM (inactive)
- GI50 (EKVX): > 10 µM (inactive)
- GI50 (MDA-N): > 2.46 µM (inactive)
- GI50 (SN12C): > 10 µM (inactive)
- GI50 (BT-549): > 10 µM (inactive)
- GI50 (SK-MEL-2): > 10 µM (inactive)
- GI50 (SNB-75): > 10 µM (inactive)
- GI50 (IGROV-1): > 10 µM (inactive)
- GI50 (NCI-H460): > 10 µM (inactive)
- GI50 (SF-268): > 10 µM (inactive)
- GI50 (HOP-62): > 10 µM (inactive)
- GI50 (SF-539): > 10 µM (inactive)
- GI50 (HCT-116): > 10 µM (inactive)
- GI50 (SK-MEL-28): > 10 µM (inactive)
- GI50 (MDA-MB-231): 0.1 µM (active)
- GI50 (HOP-92): > 10 µM (inactive)
- GI50 (U-251): > 10 µM (inactive)
- GI50 (MDA-MB-435): > 5.01 µM (inactive)
- GI50 (SW-620): > 10 µM (inactive)
- GI50 (A498): > 10 µM (inactive)
- GI50 (OVCAR-8): > 10 µM (inactive)
- GI50 (HL-60): > 10 µM (inactive)
- GI50 (MCF7): > 10 µM (inactive)
- GI50 (DU-145): > 10 µM (inactive)
- GI50 (M14): > 10 µM (inactive)
- GI50 (COLO 205): > 10 µM (inactive)
- GI50 (K562): 1.95 µM (inactive)
- GI50 (SF-295): > 10 µM (inactive)
- GI50 (OVCAR-3): > 10 µM (inactive)
- GI50 (SK-MEL-5): 7.67 µM (inactive)
- GI50 (OVCAR-5): > 10 µM (inactive)
- GI50 (NCI-H522): 9.82 µM (inactive)
- GI50 (UO-31): > 10 µM (inactive)
- GI50 (Hs-578T): > 10 µM (inactive)
- GI50 (UACC-62): 7.78 µM (inactive)
- GI50 (SNB-19): > 10 µM (inactive)
- GI50 (RXF 393): > 10 µM (inactive)
- GI50 (MOLT-4): > 10 µM (inactive)
- GI50 (A549): > 10 µM (inactive)
- GI50 (CCRF-CEM): > 10 µM (inactive)
- GI50 (SK-OV-3): > 10 µM (inactive)
- GI50 (SR): > 10 µM (inactive)
- GI50 (CAKI-1): > 10 µM (inactive)
- GI50 (Malme-3M): > 10 µM (inactive)
- GI50 (NCI-H226): > 9.08 µM (inactive)
- GI50 (UACC-257): > 10 µM (inactive)
- GI50 (HCT-15): > 10 µM

Structure (SMILES): C1=C2SSC3=CC=C(SSc4ccc(s4)SSC4=CC=C(SSC(=C1)S2)S4)S3
- GI50 (OVCAR-4): > 100 µM (inactive)
- GI50 (PC-3): > 100 µM (inactive)
- GI50 (HCC 2998): > 100 µM (inactive)
- GI50 (TK-10): > 100 µM (inactive)
- GI50 (NCI-H23): > 100 µM (inactive)
- GI50 (786-0): > 100 µM (inactive)
- GI50 (ACHN): > 100 µM (inactive)
- GI50 (KM12): > 100 µM (inactive)
- GI50 (HT-29): > 100 µM (inactive)
- GI50 (EKVX): > 100 µM (inactive)
- GI50 (MDA-N): > 100 µM (inactive)
- GI50 (SN12C): > 100 µM (inactive)
- GI50 (BT-549): > 100 µM (inactive)
- GI50 (SK-MEL-2): > 100 µM (inactive)
- GI50 (SNB-75): > 100 µM (inactive)
- GI50 (IGROV-1): > 100 µM (inactive)
- GI50 (LOX IMVI): > 100 µM (inactive)
- GI50 (NCI-H460): > 100 µM (inactive)
- GI50 (SF-268): > 100 µM (inactive)
- GI50 (HOP-62): > 100 µM (inactive)
- GI50 (HCT-116): > 100 µM (inactive)
- GI50 (SK-MEL-28): > 100 µM (inactive)
- GI50 (MDA-MB-231): > 100 µM (inactive)
- GI50 (HOP-92): > 100 µM (inactive)
- GI50 (U-251): > 100 µM (inactive)
- GI50 (MDA-MB-435): > 100 µM (inactive)
- GI50 (SW-620): > 100 µM (inactive)
- GI50 (A498): > 100 µM (inactive)
- GI50 (OVCAR-8): > 100 µM (inactive)
- GI50 (MCF7): > 100 µM (inactive)
- GI50 (DU-145): > 100 µM (inactive)
- GI50 (M14): > 100 µM (inactive)
- GI50 (RPMI-8226): > 100 µM (inactive)
- GI50 (COLO 205): > 100 µM (inactive)
- GI50 (K562): > 100 µM (inactive)
- GI50 (SF-295): > 100 µM (inactive)
- GI50 (OVCAR-3): > 100 µM (inactive)
- GI50 (SK-MEL-5): > 100 µM (inactive)
- GI50 (OVCAR-5): > 100 µM (inactive)
- GI50 (T47D): > 100 µM (inactive)
- GI50 (NCI-H522): > 100 µM (inactive)
- GI50 (UO-31): > 100 µM (inactive)
- GI50 (SNB-19): > 100 µM (inactive)
- GI50 (RXF 393): > 100 µM (inactive)
- GI50 (MOLT-4): > 100 µM (inactive)
- GI50 (A549): > 100 µM (inactive)
- GI50 (CCRF-CEM): > 100 µM (inactive)
- GI50 (SK-OV-3): > 100 µM (inactive)
- GI50 (SR): > 100 µM (inactive)
- GI50 (NCI/ADR-RES): > 100 µM (inactive)
- GI50 (CAKI-1): > 100 µM (inactive)
- GI50 (Malme-3M): > 100 µM (inactive)
- GI50 (NCI-H226): > 100 µM (inactive)
- GI50 (UACC-257): > 100 µM (inactive)
- GI50 (HCT-15): > 100 µM

Structure (SMILES): COc1cccc2c(NNc3ccccc3)c3ccc([N+](=O)[O-])cc3nc12
- GI50 (OVCAR-4): 42 µM (inactive)
- GI50 (PC-3): 14.7 µM (inactive)
- GI50 (HCC 2998): 32.7 µM (inactive)
- GI50 (TK-10): 21.3 µM (inactive)
- GI50 (NCI-H23): 20.5 µM (inactive)
- GI50 (786-0): 21.2 µM (inactive)
- GI50 (ACHN): 20.2 µM (inactive)
- GI50 (KM12): 11.6 µM (inactive)
- GI50 (HT-29): 23.6 µM (inactive)
- GI50 (EKVX): 78.2 µM (inactive)
- GI50 (MDA-N): 33.1 µM (inactive)
- GI50 (SN12C): 47.1 µM (inactive)
- GI50 (BT-549): 12.1 µM (inactive)
- GI50 (SK-MEL-2): 25.8 µM (inactive)
- GI50 (IGROV-1): 21.7 µM (inactive)
- GI50 (LOX IMVI): 13.6 µM (inactive)
- GI50 (NCI-H460): 32.3 µM (inactive)
- GI50 (SF-268): 19.6 µM (inactive)
- GI50 (HOP-62): 60.4 µM (inactive)
- GI50 (SF-539): 36.4 µM (inactive)
- GI50 (HCT-116): 22.8 µM (inactive)
- GI50 (SK-MEL-28): 43.2 µM (inactive)
- GI50 (MDA-MB-231): 43.6 µM (inactive)
- GI50 (HOP-92): 26.4 µM (inactive)
- GI50 (U-251): 21.2 µM (inactive)
- GI50 (MDA-MB-435): 18.1 µM (inactive)
- GI50 (SW-620): 24.9 µM (inactive)
- GI50 (A498): 43.5 µM (inactive)
- GI50 (OVCAR-8): 31.1 µM (inactive)
- GI50 (MCF7): 26.4 µM (inactive)
- GI50 (DU-145): 73.6 µM (inactive)
- GI50 (M14): 24 µM (inactive)
- GI50 (RPMI-8226): 7.1 µM (inactive)
- GI50 (COLO 205): 46.3 µM (inactive)
- GI50 (K562): 83.4 µM (inactive)
- GI50 (SF-295): 27.5 µM (inactive)
- GI50 (OVCAR-3): 50.2 µM (inactive)
- GI50 (SK-MEL-5): 37.6 µM (inactive)
- GI50 (OVCAR-5): > 100 µM (inactive)
- GI50 (T47D): 36.4 µM (inactive)
- GI50 (NCI-H522): 24.7 µM (inactive)
- GI50 (UO-31): 8.67 µM (inactive)
- GI50 (UACC-62): 6.41 µM (inactive)
- GI50 (SNB-19): > 100 µM (inactive)
- GI50 (RXF 393): 48.9 µM (inactive)
- GI50 (MOLT-4): 1.03 µM (active)
- GI50 (A549): 24.2 µM (inactive)
- GI50 (CCRF-CEM): 12.5 µM (inactive)
- GI50 (SK-OV-3): 53.6 µM (inactive)
- GI50 (SR): 18.7 µM (inactive)
- GI50 (NCI/ADR-RES): 41.5 µM (inactive)
- GI50 (CAKI-1): 12 µM (inactive)
- GI50 (Malme-3M): 54.3 µM (inactive)
- GI50 (NCI-H226): 24.9 µM (inactive)
- GI50 (UACC-257): 29.9 µM (inactive)
- GI50 (HCT-15): 33 µM

Structure (SMILES): OCC1NC(CO)C(O)C1O (stereo not given)
- GI50 (OVCAR-4): > 100 µM (inactive)
- GI50 (PC-3): > 100 µM (inactive)
- GI50 (MDA-N): > 100 µM (inactive)
- GI50 (SN12C): > 10 µM (inactive)
- GI50 (BT-549): > 100 µM (inactive)
- GI50 (SK-MEL-2): > 100 µM (inactive)
- GI50 (HOP-62): > 100 µM (inactive)
- GI50 (U-251): > 100 µM (inactive)
- GI50 (SW-620): > 100 µM (inactive)
- GI50 (HL-60): > 100 µM (inactive)
- GI50 (RPMI-8226): > 100 µM (inactive)
- GI50 (OVCAR-3): > 100 µM (inactive)
- GI50 (OVCAR-5): > 100 µM (inactive)
- GI50 (Hs-578T): > 100 µM (inactive)
- GI50 (SNB-19): > 100 µM (inactive)
- GI50 (RXF 393): > 100 µM (inactive)
- GI50 (CCRF-CEM): > 100 µM (inactive)
- GI50 (SR): > 100 µM (inactive)
- GI50 (UACC-257): > 100 µM (inactive)
